Source: article PMC9306920 (Clinical Pharmacology in Drug Development, 2022)

Experiments:
[1] = Plasma pharmacokinetics in thorough QT study; type: in vivo, human; settings: moxifloxacin 400 mg single oral dose
healthy subjects = assay: Thorough QT study: cardiodynamic ECG assessment; type: in vivo, human

## COc1c(N2C[C@@H]3CCCN[C@@H]3C2)c(F)cc2c(=O)c(C(=O)O)cn(C3CC3)c12 [Moxifloxacin]
[1]
  Time at which plasma concentration reached its maximal value: 2 h
  Time plasma concentration remained detectable: 72 h
Healthy subjects; any treatment, any time point
  Subjects with QTcF of >450 milliseconds or ΔQTcF of >30 milliseconds: No subject
Healthy subjects; during the study
  U-wave presence: No U‐wave observations
Healthy subjects; moxifloxacin 400 mg, 0.5, 1, and […] after dosing
  Largest LS mean ΔQRS: 0.2 milliseconds
Healthy subjects; moxifloxacin 400 mg, 2 hours after dosing
  Largest LS mean ΔΔQTcF: 12.9 milliseconds
Healthy subjects; moxifloxacin 400 mg, 3 hours after dosing
  Peak LS mean ΔQTcF: 9.2 milliseconds
Healthy subjects; moxifloxacin 400 mg, 6 hours after dosing
  Largest LS mean ΔHR: 8.7 bpm
Healthy subjects; versus placebo
  Frequencies of flat, notched, and biphasic T-wave morphologies: lower than or the same as for placebo
